Measured values taken from patent US7803792B2, “Quaternary ammonium compounds” (Asahi Kasei Pharma Corporation, priority 2002, dated 2010).

How the values were obtained:
[1] = biological target: T1, human IBAT (Homo sapiens, UniProt Q12908); test: In vitro assay of temporarily expressed human IBAT transporter using Cos 7 cells (Test Example 8); format: cell-based; details: Cos 7 cells temporarily expressing human IBAT; [3H] taurocholate 8 μM, 37° C., 60 minutes
T1 construct: expressed in transfected cells; host or cells: Cos 7
T1 sequence (Q12908 1-348): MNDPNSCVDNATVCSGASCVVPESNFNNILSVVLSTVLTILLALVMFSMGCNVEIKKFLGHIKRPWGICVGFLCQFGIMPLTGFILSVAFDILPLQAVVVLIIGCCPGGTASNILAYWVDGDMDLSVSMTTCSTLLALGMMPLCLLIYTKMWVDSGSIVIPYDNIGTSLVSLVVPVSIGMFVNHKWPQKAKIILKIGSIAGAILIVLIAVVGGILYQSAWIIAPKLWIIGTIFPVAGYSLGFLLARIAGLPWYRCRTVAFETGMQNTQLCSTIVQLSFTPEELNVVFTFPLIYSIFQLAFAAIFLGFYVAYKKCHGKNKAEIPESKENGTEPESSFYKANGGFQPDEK
Description: In Vitro Assay of Compounds Which Inhibit Temporarily Expressed Human IBAT Transporter or Rat IBAT Transporter Using Cos 7 Cells
In this test example, the in vitro assay of the compounds which inhibit temporarily expressed human IBAT transporter or rat IBAT transporter using Cos cells was carried out according to the method described in Am. J. Physiol., 274, G157-169.
That is, […] Cos 7 were inoculated on a 24-well cell plate. One day later, 0.3 μg per well of cDNA of a human IBAT or a rat IBAT was transfected by using FuGENE6 (manufactured by ROCHE PHARMACEUTICAL CO., LTD.). For the assay, the cells cultured for one day after the transfection were used and the following procedure was followed. The cells were washed once with an assay buffer, Hank's buffer solution containing 25 mM glucose and with 10 mM HEPES (pH 7.4), and then the assay buffer was replaced by an assay buffer to which the test compound was added. After adding [^3H] taurocholate to a final concentration of 8 μM, the cells were incubated at 37° C. for 60 minutes. [^3H] taurocholate was allowed to be incorporated in Cos 7 cells through human IBAT or rat IBAT. The reaction was stopped by washing twice with a buffer prepared by adding 1 mM taurocholate to the assay buffer and lyzing the cells with 0.2M NaOH. Measurement of radioactivity was carried out by introducing the cell lyzate in 4 ml of liquid scintillation cocktail, stirring the mixture well, and then measuring the radioactivity by a scintillation counter.

[2] = test system: Caco 2 cells; test: Toxicity with respect to alimentary canal: cytotoxicity to Caco 2, LDH activity (Test Example 12); format: cell-based, human; details: LDH activity after 2 hours, relative to cytolytic agent = 100%
Description: Toxicity With Respect to Alimentary Canal
To evaluate the toxicity of the compounds of the present invention to the alimentary canal, the cytotoxicity to Caco 2, which is a human originated small intestine epithelial cell line, was tested by referring to the method of Bestwick C S et al. [Biochimica et Biophysica Acta 1474: 47-55, 1999].
That is, Caco 2 cells (purchased from ATCC) were inoculated on a 96-well plate such that there were 10,000 cells/well [MEM-E medium, 10% FBS (Fetal Bovine Serum), 1% NEAA (Non Essential Amino Acid) solution, (both manufactured by GIBCO PHARMACEUTICAL COMPANY)]. After culturing for 48 hours, the test compounds were diluted with the culture medium and added to the respective wells. After 2 hours, 50 μl of the culture broth was collected and the LDH activity in the collected culture broth was measured by using an LDH activity measuring kit (CytoTox 96 Non-Radioactive Cytotoxicity Assay, manufactured by PROMEGA CORPORATION). Relative activities were calculated assuming the LDH activity as 100% when the Caco 2 cells were treated with the cytolytic agent and the obtained relative activities were taken as cytotoxicities to Caco 2 cell.

| Structure (SMILES) | IC50 [1] [nM] | Toxicity (%) to Caco 2 ([2]; 3 μM) [%] | Toxicity (%) to Caco 2 ([2]; 10 μM) [%] | Toxicity (%) to Caco 2 ([2]; 30 μM) [%] |
| --- | --- | --- | --- | --- |
| CCCCc1ccc[n+](Cc2ccc(NC(=S)Nc3cccc(C4NC(CCCC)(CCCC)CS(=O)(=O)c5ccc(N(C)C)cc54)c3)cc2)c1.[Br-] (stereo not drawn) [Example 3723] | 25 | <1 | <1 | <1 |
| CCCCC1(CCCC)CS(=O)(=O)c2ccc(N(C)C)cc2C(c2cccc(NC(=S)Nc3ccc(C[n+]4ccc(C)cc4)cc3)c2)N1.[Br-] (stereo not drawn) [Example 3709] | 49 | <1 | <1 | <1 |
| CCCCC1(CCCC)CS(=O)(=O)c2ccc(N(C)C)cc2C(c2cccc(NC(=S)Nc3ccc(C[N+]45CCN(CC4)CC5)cc3)c2)N1.[Br-] (stereo not drawn) [Example 3705] | 54 | <1 | <1 | <1 |
| CCCCCC1(CCCCC)CS(=O)(=O)c2ccc(N(C)C)cc2C(c2cccc(NC(=S)Nc3ccc(C[N+](C)(C)Cc4ccccc4)cc3)c2)N1.[Br-] (stereo not drawn) [Example 5480] | – | <1 | <1 | <1 |
| CCCCC1(CCCC)CS(=O)(=O)c2ccc(N(C)C)cc2C(c2cccc(NC(=S)Nc3ccc(C[n+]4cccc(C(=O)c5ccccc5)c4)cc3)c2)N1 (stereo not drawn) [Example 3748] | 81 | – | – | – |
| CCCCC1(CCCC)CS(=O)(=O)c2ccc(N(C)C)cc2C(c2cccc(NC(=S)Nc3ccc(C[n+]4ccc(-c5ccccc5)cc4)cc3)c2)N1 (stereo not drawn) [Example 3717] | 30 | – | – | – |
| C#CC[N+](C)(C)Cc1ccc(NC(=S)Nc2cccc(C3NC(CCCC)(CCCC)CS(=O)(=O)c4ccc(N(C)C)cc43)c2)cc1 (stereo not drawn) [Example 3433] | 55 | – | – | – |
| CCCCC1(CCCC)CS(=O)(=O)c2ccc(N(C)C)cc2C(c2cccc(NC(=S)CCCCC[N+]34CCC(CC3)C(O)C4)c2)N1 (stereo not drawn) [Example 3854] | 28 | – | – | – |
| CCCCC1(CCCC)CS(=O)(=O)c2ccc(N(C)C)cc2C(c2cccc(NC(=S)Nc3ccc(C[N+]4(Cc5ccccc5)CCCC(O)C4)cc3)c2)N1 (stereo not drawn) [Example 3604] | 45 | – | – | – |
| CCCCC1(CCCC)CS(=O)(=O)c2ccc(N(C)C)cc2C(c2cccc(NC(=S)Nc3ccc(C[n+]4cc(C)cc(-c5ccccc5)c4)cc3)c2)N1 (stereo not drawn) [Example 3730] | 84 | – | – | – |
| C=CC[N+](C)(C)Cc1ccc(NC(=S)Nc2cccc(C3NC(CCCC)(CCCC)CS(=O)(=O)c4ccc(N(C)C)cc43)c2)cc1 (stereo not drawn) [Example 3429] | 55 | – | – | – |

The next lines start with results.

| IC50 [1] [nM] | Structure (SMILES) | Toxicity (%) to Caco 2 ([2]; 3 μM) [%] | Toxicity (%) to Caco 2 ([2]; 10 μM) [%] | Toxicity (%) to Caco 2 ([2]; 30 μM) [%] |
| --- | --- | --- | --- | --- |
| 46 | CCCCC1(CCCC)CS(=O)(=O)c2ccc(N(C)C)cc2C(c2cccc(NC(=S)Nc3cccc(C[N+](CC)(CC)CCCC)c3)c2)N1 (stereo not drawn) [Example 4233] | – | – | – |
| 25 | CCCCC1(CCCC)CS(=O)(=O)c2ccc(N(C)C)cc2C(c2cccc(NC(=S)Nc3ccc(C[n+]4ccc5c(c4)CCCC5)cc3)c2)N1 (stereo not drawn) [Example 4223] | – | – | – |
| 60 | CCCCC1(CCCC)CS(=O)(=O)c2ccc(N(C)C)cc2C(c2cccc(NC(=S)Nc3cccc(C[n+]4cccc5cc(C)ccc54)c3)c2)N1 (stereo not drawn) [Example 4587] | – | – | – |
| 74 | CCCCC1(CCCC)CS(=O)(=O)c2ccc(N(C)C)cc2C(c2cccc(NC(=S)Nc3cccc(C[N+](C)(CC)Cc4ccccc4)c3)c2)N1 (stereo not drawn) [Example 4260] | – | – | – |
| 67 | CCCCC1(CCCC)CS(=O)(=O)c2ccc(N(C)C)cc2C(c2cccc(NC(=S)Nc3cccc(C[N+](C)(C)CCc4ccccc4)c3)c2)N1 (stereo not drawn) [Example 4259] | – | – | – |
| 52 | CCCCC1(CCCC)CS(=O)(=O)c2ccc(N(C)C)cc2C(c2cccc(NC(=S)Nc3ccc(C[n+]4ccccc4C)cc3)c2)N1 (stereo not drawn) [Example 5407] | – | – | – |
| 73 | CCCCC1(CCCC)CS(=O)(=O)c2ccc(N(C)C)cc2C(c2cccc(NC(=S)Nc3cccc(C[n+]4ccc(CC)cc4)c3)c2)N1 (stereo not drawn) [Example 4527] | – | – | – |
| 99 | CCCCC1(CCCC)CS(=O)(=O)c2ccc(N(C)C)cc2C(c2cccc(NC(=S)Nc3cccc(C[N+](CC)(CC)CC)c3)c2)N1 (stereo not drawn) [Example 4232] | – | – | – |
